According to PubChem BioAssay (NCI):
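A five-concentration, 48-hour dose response in 96-well plates underlies each endpoint, interpolated linearly between surrounding concentrations. GI50: concentration for 50% inhibition of growth. At the TGI there is no net growth.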

How the values were obtained:
Assay in all cases: growth of human tumour cells (NCI), 48 h
M19-MEL melanoma = test system: M19-MEL melanoma
DMS 114 small cell lung = test system: DMS 114 small cell lung
NCI/ADR-RES ovarian = test system: NCI/ADR-RES ovarian
PC-3 prostate = test system: PC-3 prostate
MDA-N = test system: MDA-N

## CCCN(CCC)c1c([N+](=O)[O-])cc(C(=O)N(CCO)CCO)cc1[N+](=O)[O-]
M19-MEL melanoma
  TGI: > 100 µM

## S=C=NCCc1ccccc1
DMS 114 small cell lung
  TGI: 1.97 µM
M19-MEL melanoma
  TGI: 2.95 µM

## N#Cc1c(N)nc(NCc2ccccc2)c(C#N)c1-c1ccc(Cl)cc1Cl
NCI/ADR-RES ovarian
  GI50: > 68.1 µM
  TGI: > 100 µM
PC-3 prostate
  GI50: 55.7 µM
  TGI: > 100 µM

## COc1ccc(N(/C=C/C(=O)C(F)(F)F)CC(=O)c2ccc(Cl)cc2)cc1
NCI/ADR-RES ovarian
  GI50: 15.7 µM
  TGI: 53.1 µM
PC-3 prostate
  GI50: 14.2 µM
  TGI: 32.8 µM

## O=c1[nH]c(=O)n(C2OC(CO)C(O)C2O)cc1OCC(F)(F)F (centres undefined)
DMS 114 small cell lung
  TGI: > 100 µM
M19-MEL melanoma
  TGI: > 100 µM

## COc1ccc(C(=O)N/N=C/c2c(C)n(C)n(-c3ccccc3)c2=O)cc1
DMS 114 small cell lung
  TGI: > 100 µM
M19-MEL melanoma
  TGI: > 100 µM

## C#COc1cccc(Nc2ncnc3cc(NC(=O)[C@H](C)Cl)ccc23)c1
NCI/ADR-RES ovarian
  GI50: 2.4 µM
  TGI: > 62.5 µM
PC-3 prostate
  GI50: 3.23 µM
  TGI: > 62.5 µM

## c1ccc([As]=[As]c2ccccc2)cc1 (centres undefined)
NCI/ADR-RES ovarian
  GI50: 2.16 µM
  TGI: 6.32 µM
PC-3 prostate
  GI50: 1.27 µM
  TGI: 2.64 µM

## CSCCCNC(=O)c1csc(-c2csc(CCNC(=O)CNC(=O)CNC(=O)OC(C)(C)C)n2)n1
MDA-N
  TGI: > 100 µM
NCI/ADR-RES ovarian
  TGI: > 100 µM
PC-3 prostate
  TGI: > 100 µM

## C#CCN(C(=O)C(F)(F)F)c1ccc(C(=O)c2ccc(N(CC#C)C(=O)C(F)(F)F)cc2)cc1
DMS 114 small cell lung
  TGI: 55.1 µM
M19-MEL melanoma
  TGI: > 100 µM

## COc1cccc(C2C3=C(COC3=O)N(CCO)c3cc4c(cc32)OCO4)c1 (centres undefined)
NCI/ADR-RES ovarian
  GI50: 0.341 µM
  TGI: 2.72 µM
PC-3 prostate
  GI50: 0.265 µM
  TGI: > 50 µM

## CCCCCCCCCCCCCC(=O)CSCCNC(=O)CCNC(=O)[C@@H](O)C(C)(C)COP(=O)(O)OP(=O)(O)OCC1OC(n2cnc3c(N)ncnc32)C(O)C1OP(=O)(O)O (some centres undefined)
DMS 114 small cell lung
  TGI: 33.3 µM
M19-MEL melanoma
  TGI: 35.3 µM

## Cc1c(C(N)=O)sc2c1c(=O)n(Cc1ccccc1)c1nnc(-c3ccc(Br)cc3)n21
NCI/ADR-RES ovarian
  GI50: 2.28 µM
  TGI: 11.2 µM
PC-3 prostate
  GI50: 4.06 µM
  TGI: 22.3 µM

## N#CN1CC[C@H](C(=O)Nc2cc3cc(C(N)=O)ccc3cn2)C1
NCI/ADR-RES ovarian
  GI50: 0.192 µM
  TGI: > 100 µM
PC-3 prostate
  GI50: 0.257 µM
  TGI: 20.4 µM

## CCN(CC)CCn1[nH]c2c3ccc(=O)cc3sc3c(NCCN)ccc1c32
DMS 114 small cell lung
  TGI: 1.52 µM
M19-MEL melanoma
  TGI: 1.48 µM

## CCn1c2ccccc2c2ccc(C3C(C(=O)OC)=C(C)NC(C)=C3C(=O)OC)cc21
MDA-N
  TGI: > 100 µM
NCI/ADR-RES ovarian
  TGI: > 100 µM

## O=c1[nH]c(=O)n(C2CC(O)C(CO)O2)cc1C#Cc1ccc(F)cc1 (centres undefined)
DMS 114 small cell lung
  TGI: > 100 µM
M19-MEL melanoma
  TGI: > 100 µM

## COc1ccc(/C=C\c2cc(OC)c(OC)c(OC)c2)cc1OCC(=O)Nc1ccc2nc(C)sc2c1
NCI/ADR-RES ovarian
  GI50: 2.36 µM
  TGI: 8 µM
PC-3 prostate
  GI50: 2.8 µM
  TGI: 8.01 µM

## Cc1nc2sccn2c1C(=O)NC(=O)Nc1ccc(Cl)cc1
DMS 114 small cell lung
  TGI: > 100 µM
M19-MEL melanoma
  TGI: > 100 µM

## CCOC(=O)C(CNc1ccc(O)cc1)NC(=O)c1ccccc1 (centres undefined)
DMS 114 small cell lung
  TGI: > 100 µM
M19-MEL melanoma
  TGI: > 100 µM

## CC1=C[C@H]2C[C@H](C)[C@H]3CC[C@H](C)[C@]4(C1)C(=O)C(O)=C(C)C(=O)[C@@]324
NCI/ADR-RES ovarian
  GI50: 17.2 µM
  TGI: 48.4 µM
PC-3 prostate
  GI50: 18.4 µM
  TGI: 56 µM

## COc1cc(C2C3=C(COC3=O)N(CCO)c3cc4c(cc32)OCO4)cc(OC)c1O (centres undefined)
NCI/ADR-RES ovarian
  GI50: 11.3 µM
  TGI: > 50 µM
PC-3 prostate
  GI50: 1.54 µM
  TGI: > 50 µM

## COc1cccc(/C(C)=N/NC(=O)CSc2nc3ccccc3c(=O)n2CCc2ccc(S(N)(=O)=O)cc2)c1
NCI/ADR-RES ovarian
  GI50: 21.3 µM
  TGI: > 100 µM
PC-3 prostate
  GI50: 3.51 µM
  TGI: 22.2 µM

## CCS(=O)(=O)c1ccc(OC)c(Nc2ncc(-c3ccccc3Cl)o2)c1
NCI/ADR-RES ovarian
  GI50: 8.03 µM
  TGI: > 25 µM
PC-3 prostate
  GI50: 11.4 µM
  TGI: > 25 µM

## Cc1cc(O)c(/C=N/C(=S)Nc2ccccc2)c(=O)o1
MDA-N
  TGI: > 100 µM
NCI/ADR-RES ovarian
  TGI: > 100 µM
PC-3 prostate
  TGI: > 100 µM

## COc1ccc(C2C=C(c3ccc(Cl)cc3)N=C3SC=C(C)N32)c(Br)c1 (centres undefined)
NCI/ADR-RES ovarian
  GI50: 4.22 µM
  TGI: > 100 µM
PC-3 prostate
  GI50: 4.67 µM
  TGI: 43.3 µM

## Cc1cccc(NC(=O)/C=C/c2ccc([N+](=O)[O-])cc2)c1
MDA-N
  TGI: > 52.2 µM
NCI/ADR-RES ovarian
  TGI: > 59.3 µM
PC-3 prostate
  TGI: 28.6 µM

## Cc1ccc(NC(=O)/C(=N/N(C)C)C(C2OC(=O)c3ccccc32)[N+](=O)[O-])cc1 (centres undefined)
MDA-N
  TGI: > 100 µM
NCI/ADR-RES ovarian
  TGI: > 100 µM
PC-3 prostate
  TGI: > 100 µM

## COc1ccc(C(CC(=O)c2ccccc2)C(C(=O)c2ccccc2)C(c2ccc(OC)cc2)C2C(=O)NC(=S)NC2=O)cc1 (centres undefined)
NCI/ADR-RES ovarian
  GI50: 10.7 µM
  TGI: 34.1 µM
PC-3 prostate
  GI50: 5.61 µM
  TGI: > 100 µM
